Data reported in patent US20080102127A1, “HYBRID LIPID-POLYMER NANOPARTICULATE DELIVERY COMPOSITION” (priority 2006, published 2008).

Tested on: Escherichia Coli (strain O157)
Experiment: Sepsis model induced in mice by Escherichia Coli (strain O157)
Format: in vivo
Conditions: BALB/c mice, E. coli O157 2.5×10^8 cells i.p.; single intravenous injection 25 mg/kg (antibiotic base) 4 h post infection; n=10
Method: Antibacterial efficacy of antibiotics in hybrid polymer-lipid nanoparticles was evaluated “in vivo” in a sepsis model, induced in mice (BALB/C line) by Escherichia Coli (strain O157). E. Coli O157 strain was chosen as a model infection as one of the most common pathogens that cause nosocomial infections.
Female BALB/c mice 6-8 weeks old were infected intraperitoneally with E. coli (strain O157) at a dose of 2.5×10^8 cells off E. coli per mouse.
The infected animals were randomized in groups (n=10) and received one of the following formulations: […]
Streptomycin formulations: 1) Saline; 2) Streptomycin solution in saline, 5 mg/ml 3) Streptomycin in hybrid polymer-lipid nanoparticles (Example 30 in Table 1), 5 mg/ml.
Gentamycin formulations: 1) Saline 2) Gentamycin solution in saline, 2.5 mg/ml; 3) Gentamycin in hybrid polymer-lipid nanoparticles (Example 24 in Table 1), 2.5 mg/ml.
The formulations were injected intraperitoneally (Streptomycin) or intravenously (Gentamycin) in the doses of 1×25 mg/kg (calculated by antibiotic base) 4 h post infection.

## Gentamycin [Gentamycin solution in saline]
  survival of the animals at Day 10: 20%
